25 molecules from PubChem BioAssay (NCI) can be followed below.

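Where inhibition never reached the appropriate level, the endpoint shown equals the highest concentration tested. Otherwise, values were interpolated linearly from a five-concentration, 48-hour dose response in 96-well plates. Here, GI50 denotes the concentration required for 50% inhibition of growth. TGI marks complete inhibition of growth.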

Test systems include MCF7 breast; DU-145 prostate; MDA-MB-231 breast; HS 578T breast.
Common to all, as to experiment: NCI tumour cell line growth inhibition, 48 h

With `COc1cc(/C=C/c2cc(C(F)(F)F)[nH]c(=O)n2)ccc1OCc1ccccc1F`, the GI50 was 4.13 µM with MCF7 breast, 9.8 µM in the assay with DU-145 prostate, 13.1 µM in the assay with MDA-MB-231 breast and 32 µM in the assay with HS 578T breast. Moreover, the TGI was 17.3 µM in the assay on MCF7 breast, 23.3 µM in the assay on DU-145 prostate, 53 µM in the assay with MDA-MB-231 breast and over 100 µM in the assay on HS 578T breast.

Regarding `CCOc1ccc(/C=C/C(=O)c2ccccc2)cc1`, the GI50 in the assay with MCF7 breast is 4.12 µM; in the assay with DU-145 prostate, 3.95 µM; in the assay on MDA-MB-231 breast, 26 µM; with HS 578T breast, 20.4 µM. The TGI in the assay on MCF7 breast was 21 µM; in the assay on DU-145 prostate it was 14.9 µM; in the assay on MDA-MB-231 breast, 72.8 µM; in the assay with HS 578T breast, 56.3 µM.

For `O=C(Nc1ccccc1C(F)(F)F)c1cccc(NC2=C(Cl)C(=O)N(Cc3ccccc3)C2=O)c1`, the GI50 with MCF7 breast is 2.68 µM; in the assay with DU-145 prostate, 8.19 µM; with MDA-MB-231 breast, 3.86 µM; in the assay with HS 578T breast it was 8.27 µM. For the same molecule, the TGI in the assay on MCF7 breast came to 27.1 µM; with DU-145 prostate, 44 µM; in the assay on MDA-MB-231 breast, 21.4 µM; with HS 578T breast, 28.5 µM.

As to `COc1cc(OC)c(/C=C/c2ccc3ccccc3[n+]2C)c(OC)c1`, the GI50 was 0.841 µM in the assay with MCF7 breast, 0.944 µM in the assay with DU-145 prostate, 1.76 µM in the assay with MDA-MB-231 breast and 0.638 µM with HS 578T breast. The TGI came to 10.6 µM in the assay on MCF7 breast, 15.3 µM in the assay with DU-145 prostate, 12.1 µM in the assay on MDA-MB-231 breast and 19.3 µM in the assay with HS 578T breast.

`C=CC(=O)N1CCCC(n2nc(-c3ccc(Oc4ccccc4)cc3)c3c(N)ncnc32)C1` (stereo not given): the GI50 is 7.88 µM in the assay with MCF7 breast, 1.89 µM in the assay with DU-145 prostate, 8.42 µM in the assay on MDA-MB-231 breast and 7.66 µM with HS 578T breast. The TGI with MCF7 breast is 23.9 µM; with DU-145 prostate, 17.4 µM; in the assay with MDA-MB-231 breast it was 23.6 µM; with HS 578T breast, 45.7 µM.

As for `CC1=CSC2=NC(c3ccc(Cl)c(Cl)c3)=CC(c3ccc(Cl)cc3)N12` (stereo not given), the GI50 with MCF7 breast, in the assay with DU-145 prostate, in the assay with MDA-MB-231 breast and in the assay with HS 578T breast was over 100 µM throughout. In addition, the TGI in the assay with MCF7 breast, with DU-145 prostate, with MDA-MB-231 breast and in the assay on HS 578T breast was over 100 µM each time.

On to `COc1cc([C@H](C)c2ccc3ccccc3c2)cc(OC)c1OC`, for which the values for the GI50 in the assay on DU-145 prostate, with MDA-MB-231 breast and in the assay on HS 578T breast were 0.494 µM, 0.877 µM and 0.303 µM, respectively. Further, the values for the TGI in the assay on DU-145 prostate, in the assay on MDA-MB-231 breast and in the assay with HS 578T breast were over 100 µM, 70.9 µM and over 100 µM, respectively.

As for `COC(=O)CCC/C=C\C[C@H]1C=CC(=O)/C1=C/C[C@@H](O)CCc1cccc(C(F)(F)F)c1`, the GI50 was 0.775 µM in the assay with MCF7 breast, 2.59 µM in the assay with DU-145 prostate, 4.65 µM in the assay on MDA-MB-231 breast and 12.2 µM in the assay with HS 578T breast. Also, the TGI with MCF7 breast was found to be 12.9 µM; in the assay on DU-145 prostate, 10 µM; in the assay on MDA-MB-231 breast it was 17.1 µM; with HS 578T breast, 50 µM.

Regarding `S=C(Nc1ccc(-c2nc3ccccc3[nH]2)cc1)NC1CCCCC1`, the GI50 in the assay with MCF7 breast was 19.7 µM; in the assay with DU-145 prostate it was 37.9 µM; with MDA-MB-231 breast, 18.1 µM; with HS 578T breast, 26.1 µM. For the same molecule, the TGI in the assay with MCF7 breast is over 100 µM; with MDA-MB-231 breast, 43.1 µM.

On to `Nc1nc(-c2cccc([N+](=O)[O-])c2)c(Br)c(=O)[nH]1`, for which the TGI was over 65.3 µM in the assay on MCF7 breast, over 100 µM in the assay with DU-145 prostate, over 100 µM in the assay on MDA-MB-231 breast and over 100 µM with HS 578T breast.

Consider `CCOC(=O)[C@@H](C)C[C@H](Cc1ccccc1)NC(=O)c1csc([C@@H](C[C@H](C(C)C)N(C)C(=O)[C@@H](NC(=O)[C@H]2C[C@H](O[Si](C)(C)C(C)(C)C)CCN2C)C(C)C)OC(C)=O)n1`, for which the GI50 in the assay with MCF7 breast is 0.132 µM; in the assay on DU-145 prostate, 0.287 µM; in the assay on MDA-MB-231 breast, 0.329 µM; in the assay on HS 578T breast, 0.217 µM. Besides, the TGI was over 8.33 µM with MCF7 breast, over 3.91 µM in the assay with DU-145 prostate, 1.89 µM in the assay with MDA-MB-231 breast and 1.35 µM in the assay with HS 578T breast.

As for `CC(C)c1ccc(Cc2cnc(NC(=O)c3cc(Br)cs3)s2)cc1`, the GI50 in the assay with MCF7 breast was 1.6 µM; in the assay on DU-145 prostate, 3.67 µM; with MDA-MB-231 breast, 3.09 µM; with HS 578T breast, 2.48 µM. Besides, the TGI in the assay on MCF7 breast is over 100 µM; in the assay with DU-145 prostate, over 100 µM; with MDA-MB-231 breast, 19.4 µM; in the assay on HS 578T breast, 58.2 µM.

With `Clc1nc(Oc2ccccc2)nc(-c2cn(-c3ccccc3)c3ccccc23)n1`, the GI50 is 11.6 µM in the assay on MCF7 breast, 8.6 µM in the assay with DU-145 prostate, 5.33 µM with MDA-MB-231 breast and 4.66 µM with HS 578T breast. Further, the TGI with MCF7 breast amounted to 32.5 µM; with DU-145 prostate it was 21.8 µM; with MDA-MB-231 breast, 15.7 µM; in the assay with HS 578T breast, 18.7 µM.

`COc1cc2nc(-c3ccc(C(F)(F)F)cc3)cc(OCCCN3CCOCC3)c2cc1OC`: the GI50 was 1.55 µM in the assay with MCF7 breast, 10.1 µM in the assay on DU-145 prostate, 0.498 µM in the assay with MDA-MB-231 breast and 2.25 µM in the assay with HS 578T breast. In addition, the TGI in the assay on MCF7 breast came out at 11.7 µM; in the assay on DU-145 prostate, 24 µM; with MDA-MB-231 breast it was 4.51 µM; in the assay with HS 578T breast, 9.24 µM.

Regarding `CN1CCN(Cc2ccc(NC(=O)c3cncc(C#Cc4cnc(N)c5ccc(F)cc45)c3)cc2C(F)(F)F)CC1`, the GI50 is 1.27 µM in the assay with MCF7 breast, 1.25 µM with DU-145 prostate, 0.936 µM with MDA-MB-231 breast and 1.17 µM in the assay on HS 578T breast. Besides, the TGI in the assay with MCF7 breast is 5.43 µM; in the assay with DU-145 prostate, 5.01 µM; with MDA-MB-231 breast, 3.66 µM; in the assay with HS 578T breast, 12.2 µM.

With `C=CCn1c(C)nc2cc(Nc3nc(Nc4ccc5nc(C)n(CC=C)c5c4)c4ccccc4n3)ccc21`, the GI50 is 0.224 µM in the assay on MCF7 breast, 0.389 µM with DU-145 prostate and 2.02 µM in the assay on HS 578T breast. Also, the TGI in the assay with MCF7 breast was 0.554 µM; with DU-145 prostate it was 1.34 µM; in the assay with HS 578T breast it was 5.22 µM.

Consider `COc1ccc2c(c1)sc1nc(-c3ccccc3)c(-c3ccsc3)n12`, for which the GI50 in the assay with MCF7 breast is 3.78 µM; in the assay on DU-145 prostate, 3.45 µM; in the assay with MDA-MB-231 breast, 5.46 µM; in the assay on HS 578T breast, over 100 µM. In addition, the TGI with MCF7 breast, with DU-145 prostate, in the assay on MDA-MB-231 breast and in the assay on HS 578T breast was over 100 µM throughout.

For `CCN(CC)CCNc1c(OC)cc(C)c2sc3ccccc3c(=O)c12`, the TGI in the assay on MCF7 breast is 18.7 µM; with DU-145 prostate, 24.2 µM; in the assay on MDA-MB-231 breast, 10.1 µM; in the assay on HS 578T breast it was 24.8 µM.

Consider `Nc1c(C(=O)c2ccccc2)sc2nc(-c3cccs3)ccc12`, for which the GI50 in the assay with MCF7 breast is 0.0878 µM; with DU-145 prostate, 0.299 µM; with MDA-MB-231 breast it was 1.23 µM; in the assay with HS 578T breast it was 0.474 µM. The TGI was 4.6 µM in the assay on MCF7 breast, 10 µM in the assay on DU-145 prostate, 5.7 µM with MDA-MB-231 breast and 12.7 µM in the assay on HS 578T breast.

Turning to `COc1ccc(/C=C/c2cc(OC)c(OC)c(OC)c2)cc1NC(=O)/C=C/c1ccc(F)cc1`, the GI50 with MCF7 breast is 3.34 µM; with DU-145 prostate, 4.05 µM; in the assay with MDA-MB-231 breast it was 5.8 µM; with HS 578T breast, 3.79 µM. Moreover, the TGI in the assay with MCF7 breast was over 100 µM; with DU-145 prostate it was over 40.5 µM; in the assay on MDA-MB-231 breast, over 100 µM; with HS 578T breast it was over 100 µM.

`COc1cc(OC2OC(C)C(O)C(O)C2O)cc2oc(-c3ccc(O)cc3)c(CC=C(C)C)c(=O)c12` (stereo not given): the GI50 with MCF7 breast was 13.9 µM; with DU-145 prostate, 34.3 µM; in the assay on MDA-MB-231 breast, 6.38 µM; in the assay on HS 578T breast, 24 µM. For the same molecule, the TGI with MCF7 breast is 48.2 µM; with DU-145 prostate, over 100 µM; in the assay with MDA-MB-231 breast it was 21.4 µM; with HS 578T breast, over 100 µM.

As to `Cc1ccc(C(=O)c2oc3ccc4c(C)cc(=O)oc4c3c2C)cc1`, the GI50 is 5.95 µM in the assay on MCF7 breast, 9.7 µM in the assay with DU-145 prostate, 11.1 µM in the assay with MDA-MB-231 breast and 19.4 µM in the assay with HS 578T breast. Also, the TGI in the assay with MCF7 breast, with DU-145 prostate, with MDA-MB-231 breast and in the assay on HS 578T breast was over 100 µM in each case.

For the molecule `CN(C)c1ccc(/C=C2\Oc3cc(O)ccc3C2=O)cc1`, the TGI with MCF7 breast, in the assay with DU-145 prostate, in the assay on MDA-MB-231 breast and with HS 578T breast was over 100 µM each time.

As to `COc1cc2c(cc1C)NC(=O)/C2=C\c1cc(OC)c(OC)c(OC)c1`, the GI50 is 42.2 µM with MCF7 breast, 15.8 µM in the assay with MDA-MB-231 breast and 58.3 µM with HS 578T breast. The TGI in the assay on MCF7 breast was over 100 µM; in the assay with MDA-MB-231 breast it was 59.2 µM; in the assay with HS 578T breast, over 100 µM.

As for `O=c1cc(-c2ccccc2)[nH]c2cccc(S)c12`, the TGI in the assay on MCF7 breast, in the assay with DU-145 prostate and in the assay on HS 578T breast was over 100 µM throughout.
